One assay concerns the target cMET (Homo sapiens, UniProt P08581). Briefly: MET (cMET) enzyme inhibitory activity, TR-FRET kinase assay. The format is biochemical. The following applies: cMET protein, TK peptide substrate. As for the experimental part:
In addition, to measure cMET enzyme activity inhibition, an experiment was performed by the same method as the experiment for measuring the RON enzyme activity inhibition.
Specifically, the compound was prepared at a concentration of 1 mM with 100% DMSO and serially diluted 10 times through 3-fold dilution. 2 μl of the serially diluted compound was added to a 96-well plate containing 48 μl 1× kinase reaction buffer (50 mM HEPES (pH 7.4), 0.05% BSA, 0.005% Tween-20, 1 mM DTT, 0.5 mM MnCl2, 20 mM MgCl2).
The cMET protein was diluted in a cMET storage buffer (50 mM Tris-HCl (pH 7.5), 150 mM NaCl, 0.05% Brij35, 1 mM DTT, 10% glycerol) to a concentration of 263 nM, and then diluted again with 1× kinase reaction buffer to 2 nM. As a substrate cocktail, a MET-specific substrate mixture (5 μM TK peptide, 10 mM ATP) was prepared at a concentration twice the final reaction concentration.
(§1) After that, a 384-well plate was prepared, and 2.5 μl of the diluted example compound was added to each of the experimental group wells, and 2.5 μl of a 4% DMSO solution was dispensed into high control wells and low control wells.
(§2) Afterward, 2.5 μl of 2 nM cMET was dispensed to the high control wells and the experimental group wells, and 2.5 μl of 1× kinase reaction buffer was added to the low control wells, and after centrifugation at 1000 RPM for 40 seconds at room temperature, the mixtures were incubated at room temperature for 20 to 30 minutes. Then, 5 μl of the substrate cocktail (2×) was dispensed into all wells, and after centrifugation at 1000 RPM for 40 seconds at room temperature, the mixtures were incubated at room temperature for 60 minutes. Afterward, 5 μl of 90 mM EDTA was added to all wells to terminate the reaction, and the mixtures were incubated again at room temperature for 5 minutes. Thereafter, 5 μl of 4× phosphotyrosine antibodies (Perkin Elmer) containing europium was added to all wells and incubated at room temperature for 60 minutes. After the incubation, the 384-well-plate was read with a Vison plate reader. At this time, the excitation wavelength was 340 nm, and the emission wavelengths were 620 nm and 665 nm. The IC50 value of each example compound was derived using the GraphPd Prism7 program.

A further assay addresses RON (Homo sapiens, UniProt Q04912). Put plainly: RON inhibitory activity, TR-FRET kinase assay. The assay is classed as biochemical. The following applies: RON protein, ULight-labeled Poly GT substrate. As to the method:
To measure the RON inhibitory activity of the example compounds, the IC50 of the compounds was measured using time-resolved fluorescence energy transfer (TR-FRET).
Specifically, the compound was prepared at a concentration of 1 mM with 100% DMSO and serially diluted 10 times through 3-fold dilution. 2 μl of the serially diluted compound was added to a 96-well plate containing 48 μl of 1× kinase reaction buffer (50 mM HEPES (pH 7.4), 0.01% Tween-20, 5 mM DTT, 0.5 mM Na3VO4, 2 mM EGTA, 10 mM MgCl2).
The RON protein was diluted with a RON storage buffer (50 mM Tris-HCl (pH 7.5), 150 mM NaCl, 0.5 mM EDTA, 0.02% Triton X-100) to a concentration of 49.3 nM, and then diluted again with 1× kinase reaction buffer to be 0.4 nM. As a substrate cocktail, a RON-specific substrate mixture (40 μM ULight-labeled Poly GT, 100 nM ATP) was prepared at a concentration twice the final reaction concentration.
as §1
as §2, with “of 0.4” for “of 2”, “nM RON” for “nM cMET”, “dispensed into” for “dispensed to”, “of 30” for “of 90”

SMILES strings stand for the structures.

Sequence of cMET (P08581 25-1390): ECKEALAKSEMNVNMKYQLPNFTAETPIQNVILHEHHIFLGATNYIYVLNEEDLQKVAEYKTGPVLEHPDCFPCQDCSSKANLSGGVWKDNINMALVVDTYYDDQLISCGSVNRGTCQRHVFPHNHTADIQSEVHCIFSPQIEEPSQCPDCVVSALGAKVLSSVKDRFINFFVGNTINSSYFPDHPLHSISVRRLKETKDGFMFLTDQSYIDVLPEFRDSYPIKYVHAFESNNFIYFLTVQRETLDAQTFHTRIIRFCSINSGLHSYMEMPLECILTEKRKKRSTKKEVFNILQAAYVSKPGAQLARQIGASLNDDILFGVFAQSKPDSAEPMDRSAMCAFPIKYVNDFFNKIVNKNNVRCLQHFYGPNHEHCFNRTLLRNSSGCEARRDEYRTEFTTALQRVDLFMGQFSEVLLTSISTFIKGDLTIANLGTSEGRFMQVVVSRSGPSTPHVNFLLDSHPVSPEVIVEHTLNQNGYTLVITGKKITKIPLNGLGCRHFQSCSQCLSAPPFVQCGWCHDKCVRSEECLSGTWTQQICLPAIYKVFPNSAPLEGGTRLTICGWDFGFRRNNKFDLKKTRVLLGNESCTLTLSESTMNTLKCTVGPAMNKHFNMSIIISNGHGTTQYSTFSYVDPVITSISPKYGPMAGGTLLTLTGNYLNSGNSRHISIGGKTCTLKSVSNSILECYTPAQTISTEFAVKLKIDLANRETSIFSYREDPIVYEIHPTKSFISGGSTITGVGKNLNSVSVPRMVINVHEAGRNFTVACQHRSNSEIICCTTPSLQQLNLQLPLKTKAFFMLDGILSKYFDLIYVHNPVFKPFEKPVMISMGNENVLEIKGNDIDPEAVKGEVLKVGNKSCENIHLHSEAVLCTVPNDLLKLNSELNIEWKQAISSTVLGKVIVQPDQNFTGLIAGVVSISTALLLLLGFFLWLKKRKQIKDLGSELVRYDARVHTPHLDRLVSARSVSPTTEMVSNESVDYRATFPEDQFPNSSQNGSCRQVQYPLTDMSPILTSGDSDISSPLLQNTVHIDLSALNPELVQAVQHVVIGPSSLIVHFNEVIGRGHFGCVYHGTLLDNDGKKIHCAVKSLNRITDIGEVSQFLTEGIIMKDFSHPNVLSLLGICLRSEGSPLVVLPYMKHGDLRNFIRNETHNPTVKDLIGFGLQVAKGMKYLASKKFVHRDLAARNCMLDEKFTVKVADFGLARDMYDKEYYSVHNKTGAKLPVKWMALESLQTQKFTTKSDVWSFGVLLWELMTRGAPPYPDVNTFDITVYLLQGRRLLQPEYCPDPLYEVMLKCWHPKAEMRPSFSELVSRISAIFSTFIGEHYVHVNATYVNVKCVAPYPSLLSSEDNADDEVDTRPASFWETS
Sequence of RON (Q04912 25-1400, species assumed): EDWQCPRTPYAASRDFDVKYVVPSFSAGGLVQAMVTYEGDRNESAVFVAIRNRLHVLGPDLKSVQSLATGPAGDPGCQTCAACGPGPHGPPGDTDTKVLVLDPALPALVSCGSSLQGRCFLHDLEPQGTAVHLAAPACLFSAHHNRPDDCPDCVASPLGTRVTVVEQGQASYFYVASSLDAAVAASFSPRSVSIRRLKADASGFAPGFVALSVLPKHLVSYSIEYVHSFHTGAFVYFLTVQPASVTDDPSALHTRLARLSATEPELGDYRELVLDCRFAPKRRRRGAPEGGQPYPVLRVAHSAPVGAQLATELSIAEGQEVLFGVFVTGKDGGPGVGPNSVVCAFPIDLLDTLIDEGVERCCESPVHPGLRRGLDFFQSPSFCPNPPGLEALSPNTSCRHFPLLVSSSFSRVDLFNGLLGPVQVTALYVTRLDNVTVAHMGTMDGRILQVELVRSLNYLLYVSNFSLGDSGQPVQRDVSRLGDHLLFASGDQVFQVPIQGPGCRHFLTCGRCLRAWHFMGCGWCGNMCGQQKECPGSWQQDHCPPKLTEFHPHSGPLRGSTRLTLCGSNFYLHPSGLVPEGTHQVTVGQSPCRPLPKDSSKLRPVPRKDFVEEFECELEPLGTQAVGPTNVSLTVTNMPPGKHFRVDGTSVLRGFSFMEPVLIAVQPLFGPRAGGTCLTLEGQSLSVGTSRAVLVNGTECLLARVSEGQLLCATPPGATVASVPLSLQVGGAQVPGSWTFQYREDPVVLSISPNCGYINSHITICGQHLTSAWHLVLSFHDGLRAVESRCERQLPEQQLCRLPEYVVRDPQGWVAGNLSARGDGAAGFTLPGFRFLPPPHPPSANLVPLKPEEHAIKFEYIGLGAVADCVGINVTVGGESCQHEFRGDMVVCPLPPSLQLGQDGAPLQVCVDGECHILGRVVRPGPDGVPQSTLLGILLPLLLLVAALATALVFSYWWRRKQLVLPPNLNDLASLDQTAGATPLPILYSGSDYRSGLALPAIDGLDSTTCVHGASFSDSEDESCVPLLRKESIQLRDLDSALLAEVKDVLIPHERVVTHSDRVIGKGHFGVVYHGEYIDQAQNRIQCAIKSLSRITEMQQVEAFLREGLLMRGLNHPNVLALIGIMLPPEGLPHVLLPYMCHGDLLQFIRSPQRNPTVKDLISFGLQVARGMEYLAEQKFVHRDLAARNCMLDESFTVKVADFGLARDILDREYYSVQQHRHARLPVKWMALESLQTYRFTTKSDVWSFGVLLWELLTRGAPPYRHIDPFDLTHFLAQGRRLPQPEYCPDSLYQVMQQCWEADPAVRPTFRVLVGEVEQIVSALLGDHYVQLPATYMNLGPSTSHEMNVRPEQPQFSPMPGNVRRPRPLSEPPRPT

On to `Nc1nccc(Oc2c(F)cc(NC(=O)c3cnn(-c4ccccc4)c3C(F)(F)F)cc2F)c1Cl` [Example 1, N-(4-((2-amino-3-chloropyridin-4-yl)oxy)-3,5-difluorophenyl)-1-phenyl-5-(trifluoromethyl)-1H-pyrazole-4-carboxamide], for which the IC50 against cMET is over 5000 nM; on RON, under 50 nM.
Regarding `Nc1nccc(Oc2c(F)cc(NC(=O)c3cnn(-c4ncccn4)c3C(F)(F)F)cc2F)c1Cl` [Example 2, N-(4-((2-amino-3-chloropyridin-4-yl)oxy)-3,5-difluorophenyl)-1-(pyrimidin-2-yl)-5-(trifluoromethyl)-1H-pyrazole-4-carboxamide], the values for the IC50 against cMET and on RON were 500 to 5000 nM and under 50 nM, respectively.
As to `Nc1nccc(Oc2c(F)cc(NC(=O)c3cnn(-c4cccnn4)c3C(F)(F)F)cc2F)c1Cl` [Example 3, N-(4-((2-amino-3-chloropyridin-4-yl)oxy)-3,5-difluorophenyl)-1-(pyridazin-3-yl)-5-(trifluoromethyl)-1H-pyrazole-4-carboxamide], the IC50 is 500 to 5000 nM against cMET and under 50 nM on RON.
In the same order, the values of `CCc1c(C(=O)Nc2cc(F)c(Oc3ccnc(N)c3Cl)c(F)c2)cnn1-c1ncccc1F` [Example 4, N-(4-((2-amino-3-chloropyridin-4-yl)oxy)-3,5-difluorophenyl)-5-ethyl-1-(3-fluoropyridin-2-yl)-1H-pyrazole-4-carboxamide] are over 5000 nM and under 50 nM.
For `Nc1nccc(Oc2cc(F)c(NC(=O)c3cnn(-c4ncccc4F)c3C(F)(F)F)cc2F)c1Cl` [Example 5, N-(4-((2-amino-3-chloropyridin-4-yl)oxy)-2,5-difluorophenyl)-1-(3-fluoropyridin-2-yl)-5-(trifluoromethyl)-1H-pyrazole-4-carboxamide], in that order: over 5000 nM and under 50 nM.
For `Nc1nccc(Oc2cc(F)c(NC(=O)c3cnn(-c4ccccc4)c3C(F)(F)F)cc2F)c1Cl` [Example 6, N-(4-((2-amino-3-chloropyridin-4-yl)oxy)-2,5-difluorophenyl)-1-phenyl-5-(trifluoromethyl)-1H-pyrazole-4-carboxamide], in that order: over 5000 nM and 50 to 500 nM.
As for `Nc1nccc(Oc2cc(F)c(NC(=O)c3cnn(-c4ncccc4F)c3C(F)(F)F)c(F)c2)c1Cl` [Example 7, N-(4-((2-amino-3-chloropyridin-4-yl)oxy)-2,6-difluorophenyl)-1-(3-fluoropyridin-2-yl)-5-(trifluoromethyl)-1H-pyrazole-4-carboxamide], the results for the IC50 against cMET and at RON were over 5000 nM and 50 to 500 nM, respectively.
In the same order, the values of `Nc1nccc(Oc2cc(F)c(NC(=O)c3cnn(-c4ccccc4)c3C(F)(F)F)c(F)c2)c1Cl` [Example 8, N-(4-((2-amino-3-chloropyridin-4-yl)oxy)-2,6-difluorophenyl)-1-phenyl-5-(trifluoromethyl)-1H-pyrazole-4-carboxamide] are over 5000 nM and 500 to 5000 nM.
Turning to `Nc1ncnc(Oc2c(F)cc(NC(=O)c3cnn(-c4ccccc4)c3C(F)(F)F)cc2F)c1Cl` [Example 9, N-(4-((6-amino-5-chloropyrimidin-4-yl)oxy)-3,5-difluorophenyl)-1-phenyl-5-(trifluoromethyl)-1H-pyrazole-4-carboxamide], the figures for the IC50 against cMET and against RON were over 5000 nM and under 50 nM, respectively.
`Nc1ncnc(Oc2c(F)cc(NC(=O)c3cnn(-c4ncccc4F)c3C(F)(F)F)cc2F)c1Cl` [Example 10, N-(4-((6-amino-5-chloropyrimidin-4-yl)oxy)-3,5-difluorophenyl)-1-(3-fluoropyridin-2-yl)-5-(trifluoromethyl)-1H-pyrazole-4-carboxamide]: the IC50 against cMET is 500 to 5000 nM; against RON, under 50 nM.
For `Nc1ncnc(Oc2c(F)cc(NC(=O)c3cnn(-c4ncccc4Cl)c3C(F)(F)F)cc2F)c1Cl` [Example 11, N-(4-((6-amino-5-chloropyrimidin-4-yl)oxy)-3,5-difluorophenyl)-1-(3-chloropyridin-2-yl)-5-(trifluoromethyl)-1H-pyrazole-4-carboxamide], the figures for the IC50 against cMET and on RON were 500 to 5000 nM and under 50 nM, respectively.
As for `Nc1ncnc(Oc2c(F)cc(NC(=O)c3cnn(-c4ncccn4)c3C(F)(F)F)cc2F)c1Cl` [Example 12, N-(4-((6-amino-5-chloropyrimidin-4-yl)oxy)-3,5-difluorophenyl)-1-(pyrimidin-2-yl)-5-(trifluoromethyl)-1H-pyrazole-4-carboxamide], the IC50 at cMET was 500 to 5000 nM; at RON, under 50 nM.
Regarding `Nc1nccc(Oc2c(F)cc(NC(=O)c3cnn(-c4ccccc4)c3C(F)(F)F)cc2F)c1I` [Example 13, N-(4-((2-amino-3-iodopyridin-4-yl)oxy)-3,5-difluorophenyl)-1-phenyl-5-(trifluoromethyl)-1H-pyrazole-4-carboxamide], the IC50 on cMET is 500 to 5000 nM; at RON, under 50 nM.
Consider `Nc1nccc(Oc2c(F)cc(NC(=O)c3cnn(-c4ccccn4)c3C(F)(F)F)cc2F)c1I` [Example 14, N-(4-((2-amino-3-iodopyridin-4-yl)oxy)-3,5-difluorophenyl)-1-(pyridin-2-yl)-5-(trifluoromethyl)-1H-pyrazole-4-carboxamide], for which the IC50 is over 5000 nM on cMET and under 50 nM on RON.
As for `Nc1nccc(Oc2c(F)cc(NC(=O)c3cnn(-c4ncccc4F)c3C(F)(F)F)cc2F)c1I` [Example 15, N-(4-((2-amino-3-iodopyridin-4-yl)oxy)-3,5-difluorophenyl)-1-(3-fluoropyridin-2-yl)-5-(trifluoromethyl)-1H-pyrazole-4-carboxamide], the values for the IC50 on cMET and against RON were 50 to 500 nM and under 50 nM, respectively.
For `Nc1nccc(Oc2c(F)cc(NC(=O)c3cnn(-c4ncccc4Cl)c3C(F)(F)F)cc2F)c1I` [Example 16, N-(4-((2-amino-3-iodopyridin-4-yl)oxy)-3,5-difluorophenyl)-1-(3-chloropyridin-2-yl)-5-(trifluoromethyl)-1H-pyrazole-4-carboxamide], in that order: 50 to 500 nM and under 50 nM.
As to `Nc1nccc(Oc2c(F)cc(NC(=O)c3cnn(-c4cccnn4)c3C(F)(F)F)cc2F)c1I` [Example 17, N-(4-((2-amino-3-iodopyridin-4-yl)oxy)-3,5-difluorophenyl)-1-(pyridazin-3-yl)-5-(trifluoromethyl)-1H-pyrazole-4-carboxamide], the IC50 is 500 to 5000 nM against cMET and under 50 nM on RON.
On to `Nc1nccc(Oc2c(F)cc(NC(=O)c3cnn(-c4ncccn4)c3C(F)(F)F)cc2F)c1I` [Example 18, N-(4-((2-amino-3-iodopyridin-4-yl)oxy)-3,5-difluorophenyl)-1-(pyrimidin-2-yl)-5-(trifluoromethyl)-1H-pyrazole-4-carboxamide], for which the IC50 against cMET was 500 to 5000 nM; on RON it was under 50 nM.
For `Nc1nccc(Oc2c(F)cc(NC(=O)c3cnn(-c4ccccc4)c3C(F)(F)F)cc2F)c1C1CCOCC1` [Example 19, N-(4-((2-amino-3-(tetrahydro-2H-pyran-4-yl)pyridin-4-yl)oxy)-3,5-difluorophenyl)-1-phenyl-5-(trifluoromethyl)-1H-pyrazole-4-carboxamide], the IC50 on cMET is 500 to 5000 nM; at RON, under 50 nM.

The values above are taken from patent US20260217673A1, “NOVEL COMPOUND AS RON INHIBITOR” (LG CHEM, LTD., priority 2022, published 2026).
